Data: EP0091208A1, “Method for combating insect pests, and novel cyclopropane carboxylates useful as active ingredients therein” (IMPERIAL CHEMICAL INDUSTRIES PLC, priority 1982, dated 1983)
≈ marks a conversion by molar mass, not a printed value.

Key:
[1] = system: Musca domestica (houseflies - adults); assay: Insecticidal mortality test, contact, houseflies; format: in vivo; details: cotton wool/milk, sugar, 1 day
Method: (§1) The activity of the compound was determined using a variety of insect pests. The compound was used in the form of liquid preparations containing 100, 50, 25, 10 or […] p.p.m. by weight of the compound. The preparations were made by dissolving the compound in a mixture of solvents consisting of 4 parts by volume of acetone and 1 part by volume of diacetone alcohol. The solutions were then diluted with water containing 0.01% by weight of a wetting agent sold under the trade name "LISSAPOL" NX until the liquid preparations contained the required concentration of the compound. "Lissapol" is a Trade Mark.
(§2) The test procedure adopted with regard to each pest was basically the same and comprised supporting a number of the pests on a medium which was usually a host plant or a foodstuff on which the pests feed, and treating either or both the pests and the medium with the preparations. The mortality of the pests was then assessed at periods usually varying from one to three days after the treatment.
(§3) The results of the tests are given in Table IIB for each of the products A to H at the rate in parts per million given in the second column as a grading of mortality on a scale of 0-9 wherein
(§4) In Table IIB the pest organism used is designated by a letter code and the pest species, the support medium or food, and the type and duration of test is given in Table IIA.

[2] = system: Spodoptera littoralis (cotton leaf worm - larvae); assay: Insecticidal mortality test, contact/residual, cotton leaf worm; format: in vivo; details: cabbage leaves, 3 days
Method: as §1, §2, §3, §4

[3] = system: Plutella xylostella (diamond back moth - larvae); assay: Insecticidal mortality test, residual, diamond back moth; format: in vivo; details: cabbage leaves, 3 days
Method: as §1, §2, §3, §4

Aphis fabae (aphids) = assay: Insecticidal mortality test, contact, aphids; format: in vivo; details: French beans, 2 days
Method: as §1, §2, §3, §4

[4] = system: Diabrotica balteata (rootworm - larvae); assay: Insecticidal mortality test, contact, rootworm; format: in vivo; details: filter paper, 3 days
Method: as §1, §2, §3, §4

[5] = Fish toxicity, young trout; details: in vivo
Excerpt: (§5) This Example illustrates the improved safety to fish of the compounds for use in the method of the invention compared with known compounds of similar chemical type. Table III sets out the LC50 values for young trout and carp in parts per million for the compounds for use in the method of this invention and parts per billion for the known (reference) compounds.

[6] = Fish toxicity, young carp; details: in vivo
Excerpt: as §5

SMILES | grading of mortality MD ([1]; rate 10 ppm) | grading of mortality MD ([1]; rate 100 ppm) | grading of mortality SL ([2]; rate 10 ppm) | grading of mortality SL ([2]; rate 100 ppm) | grading of mortality PX ([3]; rate 10 ppm) | grading of mortality PX ([3]; rate 100 ppm) | grading of mortality AF (Aphis fabae (aphids); rate 10 ppm) | grading of mortality AF (Aphis fabae (aphids); rate 100 ppm) | grading of mortality DB ([4]; rate 10 ppm) | grading of mortality DB ([4]; rate 100 ppm) | LC50 ([5]; compounds of the invention) [µg/mL] | also measured
CC1(C)[C@H](C(=O)OCc2cccc(Oc3ccc(Cl)cc3)c2)[C@@H]1/C=C(\Cl)C(F)(F)F (racemic) [Compound 5, (+)-3-(4-chlorophenoxy)benzyl (+)-cis-3-(Z-2-chloro-3,3,3-trifluoroprop-l-en-yl)-2,2-dimethylcyclopropane carboxylate] | 1 (from 10 to 19%) | 9 (90 to 100%) | 9 (90 to 100%) | 9 (90 to 100%) | 0 (less than 10% mortality) | 9 (90 to 100%) | 9 (90 to 100%) | 9 (90 to 100%) | 3 (30 to 39%) | 5 (50 to 59%) | 10 (≈ 21.8 µM) | –
CC1(C)[C@H](/C=C(\Cl)C(F)(F)F)[C@@H]1C(=O)OC(C#N)c1cccc(Oc2ccc(Br)cc2)c1 (mixture of isomers) [Compound 6, (+)-α-cyano-3-(4-bromophenoxy)benzyl (+)-cis-3-(Z-2-chloro-3,3,3-trifluoroprop-1-en-1-yl)-2,2-dimethylcyclopropane carboxylate] | 6 (60 to 69%) | 9 (90 to 100%) | 9 (90 to 100%) | 9 (90 to 100%) | 6 (60 to 69%) | 7 (70 to 79%) | 9 (90 to 100%) | 9 (90 to 100%) | 3 (30 to 39%) | 5 (50 to 59%) | – | LC50 ([6]; compounds of the invention): 10 µg/mL (≈ 18.9 µM)
CC1(C)[C@H](/C=C(\Cl)C(F)(F)F)[C@@H]1C(=O)OC(C#N)c1cccc(Oc2ccc(F)cc2)c1 (mixture of isomers) [Compound 7, (+)-α-cyano-3-(4-fluorophenoxy)benzyl (+)-cis-3-(Z-2-chloro-3,3,3-trifluoroprop-1-en-1-yl)-2,2-dimethylcyclopropane carboxylate] | 0 (less than 10% mortality) | 0 (less than 10% mortality) | 9 (90 to 100%) | 9 (90 to 100%) | 9 (90 to 100%) | 9 (90 to 100%) | 9 (90 to 100%) | 9 (90 to 100%) | 5 (50 to 59%) | 9 (90 to 100%) | 1 (≈ 2.14 µM) | –
CC1(C)C(/C=C(\Cl)C(F)(F)F)C1C(=O)OC(C#N)c1cccc(Oc2ccccc2)c1 (racemic) [Cyhalothrin, (±)-α-cyano-3-phenoxybenzyl (±)-cis-3-(Z-2-chloro-3,3,3-trifluoroprop-1-en-1-yl)-2,2-dimethylcyclopropane carboxylate, reference compound] | – | – | – | – | – | – | – | – | – | – | – | LC50 ([5]; known (reference) compounds): 0.00073 µg/mL (≈ 0.00162 µM); LC50 ([6]; known (reference) compounds): 0.00134 µg/mL (≈ 0.00298 µM)
CC1(C)C(C=C(Cl)Cl)C1C(=O)OC(C#N)c1cccc(Oc2ccccc2)c1 (racemic) [Cypermethrin, (±)-α-cyano-3-phenoxybenzyl (±)-cis/trans-3-(2,2-dichlorovinyl)-2,2-dimethylcyclopropane carboxylate, reference compound] | – | – | – | – | – | – | – | – | – | – | – | LC50 ([5]; known (reference) compounds): ~0.002 µg/mL (≈ 0.0048 µM)
CC1(C)[C@H](C(=O)OC(C#N)c2cccc(Oc3ccc(Cl)cc3)c2)[C@@H]1/C=C(\Cl)C(F)(F)F (stereo partly drawn) [Compound 1, (+)-χ-cyano-3-(4-chlorophenoxy)benzyl (+)-cis-3-(Z-2-chloro-3,3,3-trifluoroprop-l-en-l-yl)-2,2-dimethylcyclopropane carboxylate] | – | 9 (90 to 100%) | – | 9 (90 to 100%) | – | 9 (90 to 100%) | – | 9 (90 to 100%) | – | 9 (90 to 100%) | 20 (≈ 41.3 µM) | grading of mortality MD ([1]; rate 12 ppm): 9 (90 to 100%); grading of mortality MD ([1]; rate 25 ppm): 9 (90 to 100%); grading of mortality MD ([1]; rate 50 ppm): 9 (90 to 100%); grading of mortality SL ([2]; rate 12 ppm): 0 (less than 10% mortality); grading of mortality SL ([2]; rate 25 ppm): 0 (less than 10% mortality); grading of mortality SL ([2]; rate 50 ppm): 9 (90 to 100%); grading of mortality PX ([3]; rate 12 ppm): 2 (20 to 29%); grading of mortality PX ([3]; rate 25 ppm): 7 (70 to 79%); grading of mortality PX ([3]; rate 50 ppm): 9 (90 to 100%); grading of mortality AF (Aphis fabae (aphids); rate 12 ppm): 9 (90 to 100%); grading of mortality AF (Aphis fabae (aphids); rate 25 ppm): 9 (90 to 100%); grading of mortality AF (Aphis fabae (aphids); rate 50 ppm): 9 (90 to 100%); grading of mortality DB ([4]; rate 12 ppm): 0 (less than 10% mortality); grading of mortality DB ([4]; rate 25 ppm): 0 (less than 10% mortality); grading of mortality DB ([4]; rate 50 ppm): 9 (90 to 100%)
CC1(C)[C@H](/C=C(\Cl)C(F)(F)F)[C@H]1C(=O)OC(C#N)c1cccc(Oc2ccc(Cl)cc2)c1 (stereo partly drawn) [Compound 8, (+)-α-cyano-3-(4-chlorophenoxy)benzyl (+)-trans-3-(Z-2-chloro-3,3,3-trifluoroprop-l-en-yl)-2,2-dimethylcyclopropane carboxylate] | 9 (90 to 100%) | 9 (90 to 100%) | 9 (90 to 100%) | 9 (90 to 100%) | 8 (80 to 89%) | 9 (90 to 100%) | 9 (90 to 100%) | 9 (90 to 100%) | 0 (less than 10% mortality) | 5 (50 to 59%) | – | –
